Legend:
Assay type in all cases: in vivo
Echinochloa crusgalli = assay: Post-emergence test experiment, Echinochloa crusgalli; conditions: 1000 g a.i./ha, 3 weeks in greenhouse, fresh weight inhibition
Procedure, shortened: (§1)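 Test compounds dissolve in acetone, receive tween-80 and a methyl oleate emulsible concentrate synergist (1.5 liters per hectare), then are diluted in water and sprayed onto 2-3 leaf stage plants. After 3 weeks of greenhouse culture, fresh weight inhibition is determined.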

Digitaria sanguinalis = assay: Post-emergence test experiment, Digitaria sanguinalis; conditions: 1000 g a.i./ha, 3 weeks in greenhouse, fresh weight inhibition
Procedure, shortened: as §1

[1] = system: Monocotyledonous and dicotyledonous weed seeds and main crop seeds; assay: Post-emergence test experiment, other weeds and crops (Table 4, 1000 g a.i./ha); conditions: 3 weeks in greenhouse, fresh weight inhibition
Procedure, shortened: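 Growth inhibition is scored on fresh weight. Spray solutions were made in acetone with tween-80, diluted in water, plus 1.5 L/ha methyl oleate emulsible concentrate. Plants from greenhouse-grown weed and crop seeds were treated post-emergence at 2-3 leaves, 2 weeks after sowing.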

Row | SMILES | Activity level (growth inhibition rate), Echinochloa crusgalli (Echinochloa crusgalli) | Activity level (growth inhibition rate), Digitaria sanguinalis (Digitaria sanguinalis) | Activity level (growth inhibition rate), Abutilon theophrasti Medic. [1] | Activity level (growth inhibition rate), Galium aparine [1] | Activity level (growth inhibition rate), Monochoria Vaginalis [1]
1 | C[C@@H](Oc1nc(F)c(Cl)c(N)c1Cl)C(=O)OCCBr [Compound 2-278] | 5 (Level 5: the growth inhibition rate is greater than 85%) | 5 (Level 5: the growth inhibition rate is greater than 85%) | 5 (Level 5: the growth inhibition rate is greater than 85%) | 5 (Level 5: the growth inhibition rate is greater than 85%) | 5 (Level 5: the growth inhibition rate is greater than 85%)
2 | C[C@@H](Oc1nc(F)c(Cl)c(N)c1Cl)C(=O)OCC(F)F [Compound 2-279] | 5 (Level 5: the growth inhibition rate is greater than 85%) | 5 (Level 5: the growth inhibition rate is greater than 85%) | 5 (Level 5: the growth inhibition rate is greater than 85%) | 5 (Level 5: the growth inhibition rate is greater than 85%) | 5 (Level 5: the growth inhibition rate is greater than 85%)
3 | C[C@@H](Oc1nc(F)c(Cl)c(N)c1Cl)C(=O)OCC(F)(F)F [Compound 2-281] | 5 (Level 5: the growth inhibition rate is greater than 85%) | 5 (Level 5: the growth inhibition rate is greater than 85%) | 5 (Level 5: the growth inhibition rate is greater than 85%) | 5 (Level 5: the growth inhibition rate is greater than 85%) | 5 (Level 5: the growth inhibition rate is greater than 85%)
4 | CC(Oc1nc(F)c(Cl)c(N)c1Cl)C(=O)OCC(F)(F)C(F)(F)F (centres unmarked) [Compound 2-282] | 5 (Level 5: the growth inhibition rate is greater than 85%) | 5 (Level 5: the growth inhibition rate is greater than 85%) | 5 (Level 5: the growth inhibition rate is greater than 85%) | 5 (Level 5: the growth inhibition rate is greater than 85%) | 5 (Level 5: the growth inhibition rate is greater than 85%)
5 | CC(Oc1nc(F)c(Cl)c(N)c1Cl)C(=O)OCCN (centres unmarked) [Compound 2-284] | 5 (Level 5: the growth inhibition rate is greater than 85%) | 5 (Level 5: the growth inhibition rate is greater than 85%) | 5 (Level 5: the growth inhibition rate is greater than 85%) | 5 (Level 5: the growth inhibition rate is greater than 85%) | 5 (Level 5: the growth inhibition rate is greater than 85%)
6 | CC(Oc1nc(F)c(Cl)c(N)c1Cl)C(=O)OCC=CCl (centres unmarked) [Compound 2-285] | 5 (Level 5: the growth inhibition rate is greater than 85%) | 5 (Level 5: the growth inhibition rate is greater than 85%) | 5 (Level 5: the growth inhibition rate is greater than 85%) | 5 (Level 5: the growth inhibition rate is greater than 85%) | 5 (Level 5: the growth inhibition rate is greater than 85%)
7 | CC(Oc1nc(F)c(Cl)c(N)c1Cl)C(=O)OCC(Cl)=C(Cl)Cl (centres unmarked) [Compound 2-286] | 5 (Level 5: the growth inhibition rate is greater than 85%) | 5 (Level 5: the growth inhibition rate is greater than 85%) | 5 (Level 5: the growth inhibition rate is greater than 85%) | 5 (Level 5: the growth inhibition rate is greater than 85%) | 5 (Level 5: the growth inhibition rate is greater than 85%)
8 | C=CCOC(=O)C(C)(C)OC(=O)C(C)Oc1nc(F)c(Cl)c(N)c1Cl (centres unmarked) [Compound 2-288] | 5 (Level 5: the growth inhibition rate is greater than 85%) | 5 (Level 5: the growth inhibition rate is greater than 85%) | 5 (Level 5: the growth inhibition rate is greater than 85%) | 5 (Level 5: the growth inhibition rate is greater than 85%) | 5 (Level 5: the growth inhibition rate is greater than 85%)
9 | CC(Oc1nc(F)c(Cl)c(N)c1Cl)C(=O)OCC(=O)N(C)C (centres unmarked) [Compound 2-289] | 5 (Level 5: the growth inhibition rate is greater than 85%) | 5 (Level 5: the growth inhibition rate is greater than 85%) | 5 (Level 5: the growth inhibition rate is greater than 85%) | 5 (Level 5: the growth inhibition rate is greater than 85%) | 5 (Level 5: the growth inhibition rate is greater than 85%)
10 | COC(=O)CSC(=O)C(C)Oc1nc(F)c(Cl)c(N)c1Cl (centres unmarked) [Compound 2-290] | 5 (Level 5: the growth inhibition rate is greater than 85%) | 5 (Level 5: the growth inhibition rate is greater than 85%) | 5 (Level 5: the growth inhibition rate is greater than 85%) | 5 (Level 5: the growth inhibition rate is greater than 85%) | 5 (Level 5: the growth inhibition rate is greater than 85%)
11 | CCC(OC)OC(=O)C(C)Oc1nc(F)c(Cl)c(N)c1Cl (centres unmarked) [Compound 2-291] | 5 (Level 5: the growth inhibition rate is greater than 85%) | 5 (Level 5: the growth inhibition rate is greater than 85%) | 5 (Level 5: the growth inhibition rate is greater than 85%) | 5 (Level 5: the growth inhibition rate is greater than 85%) | 5 (Level 5: the growth inhibition rate is greater than 85%)
12 | COC(=O)C(C)OC(=O)C(C)Oc1nc(F)c(Cl)c(N)c1Cl (centres unmarked) [Compound 2-295] | 5 (Level 5: the growth inhibition rate is greater than 85%) | 5 (Level 5: the growth inhibition rate is greater than 85%) | 5 (Level 5: the growth inhibition rate is greater than 85%) | 5 (Level 5: the growth inhibition rate is greater than 85%) | 5 (Level 5: the growth inhibition rate is greater than 85%)
13 | COC(=O)OC(C)OC(=O)C(C)Oc1nc(F)c(Cl)c(N)c1Cl (centres unmarked) [Compound 2-296] | 5 (Level 5: the growth inhibition rate is greater than 85%) | 5 (Level 5: the growth inhibition rate is greater than 85%) | 5 (Level 5: the growth inhibition rate is greater than 85%) | 5 (Level 5: the growth inhibition rate is greater than 85%) | 5 (Level 5: the growth inhibition rate is greater than 85%)
14 | CC(Oc1nc(F)c(Cl)c(N)c1Cl)C(=O)OC1CCCO1 (centres unmarked) [Compound 2-297] | 5 (Level 5: the growth inhibition rate is greater than 85%) | 5 (Level 5: the growth inhibition rate is greater than 85%) | 5 (Level 5: the growth inhibition rate is greater than 85%) | 5 (Level 5: the growth inhibition rate is greater than 85%) | 5 (Level 5: the growth inhibition rate is greater than 85%)
15 | CC(Oc1nc(F)c(Cl)c(N)c1Cl)C(=O)Oc1ccccc1 (centres unmarked) [Compound 2-299] | 5 (Level 5: the growth inhibition rate is greater than 85%) | 5 (Level 5: the growth inhibition rate is greater than 85%) | 5 (Level 5: the growth inhibition rate is greater than 85%) | 5 (Level 5: the growth inhibition rate is greater than 85%) | 5 (Level 5: the growth inhibition rate is greater than 85%)
16 | CC(Oc1nc(F)c(Cl)c(N)c1Cl)C(=O)SCc1ccccc1 (centres unmarked) [Compound 2-301] | 5 (Level 5: the growth inhibition rate is greater than 85%) | 5 (Level 5: the growth inhibition rate is greater than 85%) | 5 (Level 5: the growth inhibition rate is greater than 85%) | 5 (Level 5: the growth inhibition rate is greater than 85%) | 5 (Level 5: the growth inhibition rate is greater than 85%)
